The text below walks through data of ChEMBL document CHEMBL1153661, “Antiviral optically pure dioxolane purine nucleosides analogues” (Bioorg Med Chem Lett, 1993).

Experiment [1] in a line: Compound was tested for inhibitory activity against HIV in human peripheral blood mononuclear (PBM, LAV strain of HIV-l) cells. It counts as functional, cell-based.
A short description of experiment [2]: Compound was tested for cytotoxicity against human peripheral blood mononuclear (PBM, LAV strain of HIV-l) cells. The class given is functional. The note with it: read-out: CD50 (the source's name).
The test system of experiment [3] is MT4. Put plainly: Compound was tested for inhibitory activity against HIV in whole cell assay (MT-4, RF strain of HIV-1 at a concentration up to […]). The class given is functional, cell-based. The note with it: Homo sapiens.
For experiment [4], the system named is MT4. Put plainly: Compound was tested for cytotoxicity against MT-4 cells (MT-4, RF strain of HIV-1). The class given is functional. Particulars: Homo sapiens, read-out: CD50 (the source's name); call rule not given here.
The test system of experiment [5] is MT4. Nature of the experiment: Compound was tested for inhibitory activity against HIV in whole cell assay (MT-4, RF strain of HIV-1 at a concentration up to […]); IA: Found inactive. The class given is functional, cell-based, Homo sapiens.
For experiment [6], the system named is MT4. Put plainly: Compound was tested for cytotoxicity against MT-4 cells (MT-4, RF strain of HIV-1); Compound was found non cytotoxic. It counts as functional, cell-based. Particulars: Homo sapiens.

SMILES strings stand for the structures. A value given as a limit tells only on which side of the number the result lay.

For `Nc1nc2c(ncn2[C@H]2CO[C@@H](CO)O2)c(=O)[nH]1`, the IC50 amounted to 0.03 µM in experiment [1] and 10.7 µM in the experiment on MT4 [3]. Moreover, the CC50 in experiment [2] was more than 100 µM; with MT4 [4] it was more than 425 µM.
As to `Nc1nc(O)c2ncn([C@@H]3CO[C@H](CO)O3)c2n1`, in the experiment on MT4 [5], the IC50 entry was “Not Active”. For the same compound, in the experiment with MT4 [6], the CD50 result was “Non-toxic”.

As a reminder, the IC50 is the concentration that gives 50% inhibition. A higher IC50 goes with weaker potency.
